Measured values from patent EP4140481A1, “PROTEIN-OLIGOMER BINDING AGENTS AND THERAPEUTIC USES THEREOF” (Galyan Bio, Inc., priority 2021, dated 2023).

Assays:
Amyloid-β 1-40 (Ab40) = biological target: T1, Amyloid-β 1-40 (Ab40) (Homo sapiens, UniProt P05067); assay: Dynamic Light Scattering (DLS), induced aggregation; type: biochemical; conditions: equimolar Compound 4
T1 construct: purchased rPeptide, Watkinsville, Georgia A-1153-2
Procedure: Proteins were ultracentrifuged with 50,000 rpm (rounds per minute) for one hour at 2 °C. The supernatant was used for DLS measurements. DLS measurements were conducted with Malvern Zetasizer Nano (Malvern Panalytical Ltd, United Kingdom).
Amyloid-β 1-40 (Ab40) (catalog A-1153-2, rPeptide, Watkinsville, Georgia) Sequence
The aliquots of lyophilized Amyloid-β 1-40 (Ab40) peptide were hydrated at room temperature in 50 mM phosphate buffer pH 7.4 and 100 mM NaCl (Buffer 1)
The aliquots of lyophilized Ab peptide were hydrated at room temperature in 75 mM MOPS pH 7.4 and 2 mM CaCl2 (Buffer 2)

[1] = Solubilization of Compound 4; type: physicochemical
C. elegans = C. elegans growth and development (toxicity) assay; type: in vivo; conditions: doses 32nM to 500µM, hatching to first day of adulthood
Procedure: Delivery strategy: The indicated compound dosage is based on the total volume of the plates with the assumption that the water-soluble compound diffuses throughout the agar. The compound is dissolved in a working solution and then combined directly with the food bacteria before seeding on agar plates. The food spots are dried slowly, allowing the compound to diffuse into the food bacteria and the agar for 24 hours.
Growth and development assay results: High-resolution imaging and automated detection were used to precisely measure the growth rate of animals from hatching to the first day of adulthood (total of 4 days). The C. elegans growth and development assay is highly sensitive and widely used in toxicology studies. Performing this test over a range of doses helps to identify a set of doses that have a physiological impact and exclude dose ranges that are likely too toxic to benefit lifespan.

[2] = Buffer 1, Ab40 154 µM, 100% of Ab40
[3] = by intensity, Buffer2, Ab40 155 µM

T1 sequence (P05067 672-711): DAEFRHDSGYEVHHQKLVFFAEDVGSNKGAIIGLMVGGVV

With `CCc1c(C)[nH]c2ccc(C(=O)NCCN(CC)CC)cc12` [Compound 4, N-(2-(diethylamino)ethyl)-3-ethyl-2-methyl-1H-indole-5-carboxamide] the “mean size, distribution by number” value (Amyloid-β 1-40 (Ab40); [2]) was 141.5 nm, the “mean size, distribution by volume” value (Amyloid-β 1-40 (Ab40); [2]) was 208.5 nm and the “Size, Peak 1” value (Amyloid-β 1-40 (Ab40); by intensity, Buffer2 (MOPS, CaCl2), Ab40 155 µM) was 304.8 nm. For the same molecule, the “% Intensity, Peak 1” value (Amyloid-β 1-40 (Ab40); [3]) was 55.5%, the “% Intensity, Peak 2” value (Amyloid-β 1-40 (Ab40); [3]) was 33.5% and the “% Intensity, Peak 3” value (Amyloid-β 1-40 (Ab40); [3]) was 6.1%. For the same molecule, the “Size, Peak 2” value (Amyloid-β 1-40 (Ab40); [3]) was 77.06 nm, the “Size, Peak 3” value (Amyloid-β 1-40 (Ab40); [3]) was 0.7710 nm and the “solubility in DMSO” value ([1]; initial batch) was “limited solubility”. The dissolved in water ([1]; second batch with an HCl modification) was at least 200 mM and the “highest concentration at which no adverse effects were detected” value (C. elegans) was 4 µM.
